Converted amounts (≈) assume the structure as drawn.

Usually MIC stands for the lowest concentration that inhibits growth of the organism.

Experiment [1] deals with Staphylococcus aureus. The experiment in a line: Antibacterial activity against Staphylococcus aureus assessed as reduction in bacterial count at 6 times MIC incubated for 24 hrs by time kill assay. It counts as functional.
Experiment [2] deals with Staphylococcus aureus. The experiment in a line: Antibacterial activity against methicillin-resistant Staphylococcus aureus ATCC 29213 assessed as reduction in bacterial count at 6 times MIC incubated for 24 hrs by time kill assay. It counts as functional.
Experiment [3] has as its system Staphylococcus aureus. The experiment in a line: Bactericidal activity against methicillin-resistant Staphylococcus aureus ATCC 29213 incubated for 24 hrs by time kill assay. Type of experiment: functional, organism-based.
For experiment [4], the system named is Staphylococcus aureus. The experiment in a line: Bactericidal activity against Staphylococcus aureus incubated for 24 hrs by time kill assay. Type of experiment: functional, organism-based.
The subject of experiment [5] is Staphylococcus aureus. The experiment can be described thus: Antibacterial activity against methicillin-resistant Staphylococcus aureus BNCC 337371 assessed as bacterial growth inhibition incubated for 18 to 24 hrs by NCCLS based assay. It counts as functional. The settings on record: time 18-24 hrs.
For experiment [6], the system named is Staphylococcus epidermidis. The experiment in a line: Antibacterial activity against methicillin-resistant Staphylococcus epidermidis ATCC 51625 assessed as bacterial growth inhibition incubated for 18 to 24 hrs by NCCLS based assay. Type of experiment: functional. The note with it: time 18-24 hrs.
In experiment [7] the test system is Staphylococcus aureus. The experiment can be described thus: Antibacterial activity against Staphylococcus aureus ATCC 25923 assessed as bacterial growth inhibition incubated for 18 to 24 hrs by NCCLS based assay. The note with it: time 18-24 hrs. It counts as functional.
Another experiment concerns Streptococcus agalactiae. The experiment can be described thus: Antibacterial activity against Streptococcus agalactiae assessed as bacterial growth inhibition incubated for 18 to 24 hrs by NCCLS based assay. It counts as functional. The settings on record: time 18-24 hrs.
The subject of the next experiment is Enterococcus faecalis. The experiment can be described thus: Antibacterial activity against Enterococcus faecalis assessed as bacterial growth inhibition incubated for 18 to 24 hrs by NCCLS based assay. Type of experiment: functional. The settings on record: time 18-24 hrs.
The test system of a further experiment is Pasteurella multocida. The experiment in a line: Antibacterial activity against Pasteurella multocida CVCC 1659 assessed as bacterial growth inhibition incubated for 18 to 24 hrs by NCCLS based assay. It counts as functional. The note with it: time 18-24 hrs.
Another experiment deals with Escherichia coli. The experiment can be described thus: Antibacterial activity against Escherichia coli CICC 10389 assessed as bacterial growth inhibition incubated for 18 to 24 hrs by NCCLS based assay. It counts as functional. The note with it: time 18-24 hrs.

Turning to `C=C[C@]1(C)C[C@@H](OC(=O)CSc2ncnc(NCCN(C)C)n2)[C@]2(C)[C@H](C)CC[C@]3(CCC(=O)[C@H]32)[C@@H](C)[C@@H]1O`, the “log(activity)” value with Staphylococcus aureus [1] came to 2.14; in the experiment on Staphylococcus aureus [2], 0.32. The Activity entry in the experiment on Staphylococcus aureus [3] and in the experiment on Staphylococcus aureus [4] was “Dose-Dependent Effect” in each case. The MIC with Staphylococcus aureus [5] is 0.063 µg/mL (≈ 0.113 µM); in experiment [6] it was 0.125 µg/mL (≈ 0.223 µM); with Staphylococcus aureus [7], 0.031 µg/mL (≈ 0.0554 µM); in the experiment with Streptococcus agalactiae it was 0.063 µg/mL (≈ 0.113 µM); in the experiment on Enterococcus faecalis, 16 µg/mL (≈ 28.6 µM); with Pasteurella multocida, no less than 64 µg/mL. For the same molecule, the minimal inhibitory concentration (MIC) with Escherichia coli was no less than 64 µg/mL.

The values above are taken from ChEMBL document CHEMBL5634148, “Synthesis and evaluation of novel pleuromutilin derivatives targeting the 50S ribosomal subunit for antibacterial ability” (Eur J Med Chem, 2023).
